Where two headings read alike, the source gives them in different places.
Assays:
[1] = system: T-47D breast cancer cell line; test: MTT anti-proliferative assay, breast cancer cell line T-47D; format: cell-based; details: Homo sapiens, T47D
[2] = system: A549 lung cancer cell line; test: MTT anti-proliferative assay, lung cancer cell line A549; format: cell-based; details: Homo sapiens, A549, read-out: IC50 (µM) A549, MTT assay, lung cancer cell line A549; average ± standard deviation of independent triplicates

IC50 ([1]; read-out: IC50 (µM) T-47D, MTT assay, breast cancer cell line T-47D, average ± standard deviation of independent triplicates)	IC50 [2]	Structure (SMILES)	IC50 ([1]; read-out: IC50 (µM) T-47D)
8.14 ± 0.97 µM	5.73 ± 0.69 µM	C#Cc1cccc(Nc2ncnc3cc(OCCOC)c(OCCOC)cc23)c1 [Erlotinib]	–
–	–	CN[C@@H]1C[C@H]2O[C@@](C)([C@@H]1OC)n1c3ccccc3c3c4c(c5c6ccccc6n2c5c31)C(=O)NC4 [Staurosporine]	6.83 ± 1.03 µM
